Like-named read-outs stand apart in the source and are kept apart here.
Key:
[1] = Acute toxicity (lethal dose) in Swiss mice, parenteral and oral; conditions: mouse, in vivo
Description: The acute toxicity of the compounds of the invention was determined on Swiss mice parenterally, (intravenously, intraperitoneally, subcutaneously) and orally.
Measurement of the lethal doses of N-(1-methyl-2-pyrrolidinylmethyl)-2,3-dimethoxy-5-methylsulphamoyl benzamide (compound 1) and its levorotatory isomer (compound 2) gave the following results: […]

rabbit = test: Cystomanometry in the anesthetized rabbit; assay type: in vivo
Description: (§1) A pharmacological study of the compound of the invention which consisted of studying its action on the results of cystomanometry in the rabbit and rat was performed under the following conditions: the animals were anesthesized with pentobarbitol and were given artificial respiration. The left outer jugular vein was catheterized to permit the I.V. injection of the studied product. The bladder was then exteriorized and the two ureters were connected and provided with two catheters, one of which was used to measure the intravesical pressure and the other for the vesical filling.
(§2) The vesical was filled by perfusion of 0.9% salt water at a constant flow rate of 40 ml/min for the rabbit and 5 ml/min for the rat.
(§3) The intravesical pressure before perfusion and the perfused water volume were measured.
(§4) The following parameters were studied: the intravesical pressure before perfusion P1 the intravesical pressure at the time of starting urination P2 […]
(§5) the volume of salt water perfused the quantity discharged during urination the residual quantity only in the bladder.
The cystomanometry study was performed under the following conditions: a first perfusion was carried out after stabilising the preparation for 5 minutes a second perfusion was carried out 15 minutes after the first a third perfusion was carried out 5 minutes after the second.
The study was performed by chronic and acute administration to the rabbit and acute administration to the rat.
The study of the rabbit was performed in the following manner:
10 male rabbits having an average weight of 2500±100 g were used as the control batch for the chronic administration study, 10 male rabbits with an average weight of 2500±100 g were treated every morning for 8 days with N-(1-methyl-2-pyrrolidinylmethyl)-2,3-dimethoxy-5-methylsulphamoyl benzamide intramuscularly injected at a dosage of 10 mg/kg/day. The final injection was carried out 30 minutes before the experiment […]
for the acute administration study 2 batches of 10 male rabbits with an average weight of 2500±100 g were treated with N-(1-methyl-2-pyrrolidinylmethyl)-2,3-dimethoxy-5-methylsulphamoyl benzamide intravenously administered at doses of 5 and 50 mg/kg.
For the controls and for all the treated batches the first perfusion is used as a standard for the following perfusions (each animal serving as its own control).
In the case of the acute administration of N-(1-methyl-2-pyrrolidinylmethyl)-2,3-dimethoxy-5-methylsulphamoyl benzamide to both the rabbit and the rat the product was injected at the end of the first perfusion.
There was a delay of 15 minutes before the two other perfusions (this was also respected for the controls in order to adhere to the same experimental conditions).

rat = test: Cystomanometry in the anesthetized rat; assay type: in vivo
Description: as §1, §2, §3, §4, §5
The cystomanometry study was performed under the following conditions: a first perfusion was carried out after stabilising the preparation for 5 minutes a second perfusion was carried out 15 minutes after the first a third perfusion was carried out 5 minutes after the second. […]

[2] = test system: functional disorders of the lower urinary apparatus of men; test: Double blind study in males versus lipidosterolic complex extracted from pygeum africanum (prostatism); assay type: in vivo
Description: functional disorders of the lower urinary apparatus of men and particularly in the case of prostatism
(§6) 2. To check these impressions, two studies were carried out according to the double blind procedure:
The study was carried out in comparison with the only possible reference product: lipidosterolic complex extracted from pygeum africanum.

[3] = Clinical tolerance and ease of oral treatment in both indications; assay type: in vivo, men and women
From the text: For both the above indications, the ease of oral treatment was appreciated and the tolerance was excellent.

pelvic spasms = test: Treatment of pelvic spasms on probe after urological gynecological surgery; assay type: in vivo; conditions: intramuscular or intravenous
man = test: Gaseous cystomanometric study in man (cases of serious neurological bladder); assay type: in vivo
Description: A person suffering from multiple sclerosis suffered from incontinence, pollakisuria and the very frequent need to urinate. The intramuscular injection of two 100 mg ampules of the compound of the invention delayed the need to urinate for a volume of 150 cm^3, compared with 80 cm^3 before treatment.
A person having psychogenic urinary disorders with incontinence and pollakisuria received two 100 mg ampules of the compound according to the invention by the intramuscular route. They only needed to urinate for a volume of 400 cm^3, compared with 200 cm^3 before treatment. They were able to voluntarily prevent urination for 2 minutes compared with 15 seconds before treatment.

[4] = test system: cystalgias with clear urine in women; test: Double blind study in females versus placebo (cystalgias with clear urine); assay type: in vivo
Description: cystalgias with clear urine in women.
as §6
Due to the absence of a reference product the activity of the present product was compared with a placebo.

[5] = intravenous, read-out: LD50 I.V.
[6] = ip, intraperitoneal, read-out: LD50 I.P.
[7] = sc, subcutaneous, read-out: LD50 S.C.

Compound | LD50 [1, 5] [mg/kg] | LD50 [1, 6] [mg/kg] | LD50 ([1]; oral, read-out: LD50 P.O.) [mg/kg] | LD50 [1, 7] [mg/kg] | urinary threshold (rabbit; anesthetized rabbit) | significance of differences compared with the controls (rabbit; rabbit, acute I.V. 5 and 50 mg/kg) | variations of the same parameters (ΔP, perfusion volume) (rabbit; rabbit, acute I.V. 5 and 50 mg/kg, second and third perfusions, compared with chronic administration) | decrease of the perfusion volume compared with the controls (rabbit; rabbit, intramuscular, 10 mg/kg/day for 8 days) | reduction of ΔP (P2 - P1) compared with control batch (rabbit; rabbit, intramuscular, 10 mg/kg/day for 8 days, as from the first perfusion) | difference of ΔP compared with the controls at the third perfusion (rabbit; rabbit, intramuscular, 10 mg/kg/day for 8 days, third perfusion) | same phenomena as in the rabbit (ΔP, perfusion volume) (rat; acute I.V. 50 and 100 mg/kg) | urinary volume (rat; second and third perfusions, particularly at I.V. dosage of 50 mg/kg) | superiority over lipidosterolic complex extracted from pygeum africanum [2] | tolerance [3] | activity in the treatment of pelvic spasms (pelvic spasms) | vesical tolerance (man; man, two cases of serious neurological bladder) | volume at which need to urinate occurs (man; person, multiple sclerosis, intramuscular, two 100 mg ampules, 80 cm^3 before treatment) [cm^3] | time of voluntary prevention of urination (man; person, psychogenic urinary disorders, intramuscular, two 100 mg ampules, 15 seconds before treatment) [min] | volume at which need to urinate occurs (man; person, psychogenic urinary disorders, intramuscular, two 100 mg ampules, 200 cm^3 before treatment) [cm^3] | superiority over placebo [4]
CNS(=O)(=O)c1cc(OC)c(OC)c(C(=O)NCC2CCCN2C)c1 (single isomer, unassigned) [Compound 2, Levorotatory N-(1-methyl-2-pyrrolidinylmethyl)-2,3-dimethoxy-5-methylsulphamoyl benzamide] | 90 to 94.6 | 310 to 336 | 1080 to 1150 | 741 to 780 |  |  |  |  |  |  |  |  |  |  |  |  |  |  |  | 
CNS(=O)(=O)c1cc(OC)c(OC)c(C(=O)NCC2CCCN2C)c1 (stereo not drawn) [Compound 1, N-(1-methyl-2-pyrrolidinylmethyl)-2,3-dimethoxy-5-methylsulphamoyl benzamide] | 130 to 135 | 315 to 323 | 992 to 1050 | 936 to 960 | lowers the urinary threshold | highly significant | Variations in the same direction of the same parameters and in the same proportions | about half | about a third | reduced at the third perfusion | not observed | significant increase | statistically significant | excellent | remarkably active | increase in the vesical tolerance | 150 | 2 | 400 | very significant

Source: patent US4263316A, “N-(1-Methyl-2-pyrrolidinylmethyl)-2,3-dimethoxy-5-methylsulfamoyl benzamide and its derivatives, methods of preparing them and their application to the treatment of troubles of the lower part of the body” (Societe d'Etudes Scientifiques et Industrielles de l'Ile de …, priority 1978, dated 1981)
